# Measurements published in patent US20230356105A1, “TETRAAZADODECANE BASED CHELATING AGENTS FOR SEPARATION OF RARE EARTH ELEMENTS AND METHOD THEREFOR” (Ustav Organicke Chemie a Biochemie AV CR V.V.I., priority 2020, published 2023).
# Assays:
# [1] = Use of additives to improve separation of Nd/Dy mixture by precipitation with L5 (Example 18); assay type: physicochemical; details: 11 mM L5
# Description: Stock solutions were pipetted into plastic 1×1 cm cuvettes to prepare reaction mixtures with concentrations as follows: • 1. […] 5 mM NdCl3 • 3. 5 mM DyCl3 • 4. 500 mM MOPS pH=7 • 5. the additive of interest, in a variable concentration; if possible, stock solutions were prepared from Na^+ salt forms of the compound; if not, the stock solutions were titrated by NaOH/HCl to pH=7 prior to addition (see Table 12 for additives and concentrations)
# These aqueous reaction mixtures, each prepared to a total volume of 2.0 mL with the addition of water as necessary, were mixed by the use of a PTFE-coated stir bar on a magnetic stirrer. The cuvettes were sealed with transparent tape to prevent evaporation overnight. The reaction mixtures were stirred for 18 hours, at which point 500 μL aliquots of each reaction mixture were transferred into plastic 2 mL Eppendorf tubes and centrifuged. The supernatants were carefully pipetted out and transferred to a new set of tubes. The precipitate was dissolved by addition of 500 μL 1M HCl. The absolute concentration of Nd and Dy in each supernatant and precipitate was determined by ICP-OES.
# [2] = Removal of additive from remaining solution after precipitation by ultrafiltration (Example 25); assay type: physicochemical
SMILES,Precipitate concentration [mM] Dy ([1]; additive 20 mM),Precipitate concentration [mM] Nd ([1]; additive 20 mM),Supernatant concentration [mM] Dy ([1]; additive 20 mM),Supernatant concentration [mM] Nd ([1]; additive 20 mM),Precipitate concentration [mM] Dy ([1]; additive 50 mM),Precipitate concentration [mM] Nd ([1]; additive 50 mM),Supernatant concentration [mM] Dy ([1]; additive 50 mM),Supernatant concentration [mM] Nd ([1]; additive 50 mM),Precipitate concentration [mM] Dy ([1]; additive 100 mM),Precipitate concentration [mM] Nd ([1]; additive 100 mM),Supernatant concentration [mM] Dy ([1]; additive 100 mM),Supernatant concentration [mM] Nd ([1]; additive 100 mM),Precipitate concentration [mM] Dy ([1]; additive 250 mM),Precipitate concentration [mM] Nd ([1]; additive 250 mM),Supernatant concentration [mM] Dy ([1]; additive 250 mM),Supernatant concentration [mM] Nd ([1]; additive 250 mM),% of initial [additive] in filtrate ([2]; initial [additive] 76 mM),other results
O=C(O)c1ccccc1 [benzoic acid],3.83 mM,4.94 mM,1.09 mM,0.13 mM,1.81 mM,4.66 mM,2.69 mM,0.10 mM,0.97 mM,4.60 mM,4.03 mM,0.49 mM,0 mM,0 mM,5 mM,5 mM,43%,Precipitate concentration [mM] Dy ([1]; additive 150 mM): 0.68 mM; Precipitate concentration [mM] Nd ([1]; additive 150 mM): 3.96 mM; Supernatant concentration [mM] Dy ([1]; additive 150 mM): 4.34 mM; Supernatant concentration [mM] Nd ([1]; additive 150 mM): 1.03 mM; Precipitate concentration [mM] Dy ([1]; additive 200 mM): 0.53 mM; Precipitate concentration [mM] Nd ([1]; additive 200 mM): 1.65 mM; Supernatant concentration [mM] Dy ([1]; additive 200 mM): 4.20 mM; Supernatant concentration [mM] Nd ([1]; additive 200 mM): 2.89 mM
"CC(C)(O)C(=O)O [α-HIBA, alpha-hydroxyisobutyric acid]",0.81 mM,3.78 mM,3.69 mM,0.60 mM,,,,,,,,,,,,,,Precipitate concentration [mM] Dy ([1]; additive 5 mM): 2.59 mM; Precipitate concentration [mM] Nd ([1]; additive 5 mM): 4.32 mM; Supernatant concentration [mM] Dy ([1]; additive 5 mM): 1.55 mM; Supernatant concentration [mM] Nd ([1]; additive 5 mM): 0.10 mM; Precipitate concentration [mM] Dy ([1]; additive 10 mM): 1.50 mM; Precipitate concentration [mM] Nd ([1]; additive 10 mM): 4.03 mM; Supernatant concentration [mM] Dy ([1]; additive 10 mM): 3.03 mM; Supernatant concentration [mM] Nd ([1]; additive 10 mM): 0.19 mM; Precipitate concentration [mM] Dy ([1]; additive 15 mM): 1.18 mM; Precipitate concentration [mM] Nd ([1]; additive 15 mM): 4.33 mM; Supernatant concentration [mM] Dy ([1]; additive 15 mM): 3.37 mM; Supernatant concentration [mM] Nd ([1]; additive 15 mM): 0.33 mM; % of initial [additive] in filtrate ([2]; initial [additive] 30.4 mM): 3%
CC(=O)O [acetate],,,,,2.43 mM,4.97 mM,3.05 mM,0.33 mM,1.74 mM,4.85 mM,3.74 mM,0.30 mM,1.05 mM,4.04 mM,4.37 mM,1.17 mM,83%,Precipitate concentration [mM] Dy ([1]; additive 500 mM): 0.49 mM; Precipitate concentration [mM] Nd ([1]; additive 500 mM): 0.52 mM; Supernatant concentration [mM] Dy ([1]; additive 500 mM): 4.69 mM; Supernatant concentration [mM] Nd ([1]; additive 500 mM): 4.62 mM
